In one assay the test system is brain myelination. Put plainly: Cross-sectional correlation of infant formula nutrient content with brain myelin content (mcDESPOT MRI, myelin water fraction). It is filed as in vivo, human. The following applies: formula-fed children up to 5 years. The text has this:
MRI (Magnetic Resonance Imaging): MRI brain scans of infants and children between 0 and 5 years were acquired using a white matter imaging technique. This technique provides a quantitative measure, the Myelin Water Fraction (MWF), which is a surrogate marker of myelin content in the brain. When mapped as a function of time across early childhood, myelination trajectories can be generated.
Each infant was scanned using the mcDESPOT (multicomponent Driven Equilibrium Single Pulse Observation of T1 and T2) white matter imaging technique Deoni et al. (Magn. Reson. Med. 2008, 60:1372-1387), which provides a quantitative measure of the myelin water fraction (MWF)—a measure of myelin content—at each point throughout the brain. All infants were scanned during natural (i.e. non-sedated) sleep using acoustically-muffled mcDESPOT imaging protocols. Total imaging times ranged from 19 minutes for the youngest toddlers to 24 minutes for the older 4 year-old children.
Following image alignment, non-brain signal removal, and correction for main and transmit magnetic field (B0 and B1) inhomogeneities, a three-pool signal model (comprising the myelin-associated water; intra-extra axonal water; and a non-exchanging free-water pool) was fit to the mcDESPOT data to derive voxel-wise MWF maps.
Each child's map was then non-linearly aligned to a study specific template. White matter masks, corresponding to 5 bilateral regions (frontal, temporal, occipital, parietal, and cerebellar WM) as well as the body, genu, and splenium of the corpus callosum were created from common databases, registered to the common template, and superimposed onto each child's MWF map. Mean values for each region were then determined for each child and used for subsequent developmental analysis and trajectory modeling.
From the cohort described above, children up to 5 years of age that were fed different infant formulas during infancy were included in a large correlation analysis to examine the relationship between formula nutrient composition and brain myelination. The 5 most frequently used formulas in that cohort were analyzed for their nutritional composition. A single general linear model (GLM) was constructed that modeled all quantified nutrients and child age.
Spearman rank correlations were then calculated between the nutrient content and myelin content value (adjusted for child age) at each image voxel, or point within the brain. Significance was defined as p<0.05 corrected for type 1 error using a cluster based correction approach. An association or trend was defined as p<0.15. […] To reduce the number of nutritional components in the model, we examined the inter-nutritional correlation. Using a conservative threshold of 0.9, we excluded nutritional components that were highly correlated with each other across the various formulas.

Assay [1] relates to neural progenitor cell (NPCs). Put plainly: Monolayer culture NPC proliferation assay. It is filed as cell-based, mouse. The following applies: control 262. How it is done: Monolayer Culture NPC Proliferation Assay (Incorporation of EdU—S Phase Marker
After 24 h, it was ensured that cells had attached to the plate then the medium was carefully removed. 500 μL of compound media plus GF.was added. The cells were cultured for 3 days in appropriate media.
EDU incorporation was measured using Click-iT® EdU Alexa Fluor® 555 Imaging Kit
At the end of day 3 EdU was added to each well at 10 μM for 30 minutes prior to fixation.
For fixation and subsequent immunohistochemical analysis, the medium was removed, the cells were rinsed once with 1×PBS for 5 min, and fixed with 4% PFA in 1×PBS for 15 min at 4° C., then the cells were washed twice with 1×PBS for 5 min, left in 1×PBS, wrapped in foil and leave overnight at 4° C., or staining was proceeded with.
serum, 1×PBS, and 0.1% triton X) added to cover the bottom, the block was kept at room temp for 1 hour. The cells were stained for EDU. The cells were Incubated for 30 min at room temp, in the dark. The cells were washed with 1×PBS and stained with Dapi 1:5000 ul for 15 min. The cells were washed once with 1×PBS, then left in PBS at 4° C., or Imaged immediately using a GE Cytell imager (cell viability

Assay [2] concerns neural progenitor cell (NPCs). Put plainly: Neurosphere counts in 96-well plates. It is filed as cell-based, mouse. The following applies: control 103. How it is done:
Generation of neural progenitor cell (NPCs) libraries:
dissociation of E14 mouse neocortex
Plating Cells in 96-Well Plates for Neurosphere Counts and Diameters Only
3-4 mLs of cells were taken out of the tilted plate and add to a 15 ml conical. Some of the remaining media was used to rinse down the plate. All remaining media was drawn up and put into a 15 ml conical tube, and Spun at 130G for 5 min. All media was removed. The cells were gently resuspended in 5 mls of warm PBS, spun again. PBS was then removed and the cells were then gently resuspended in 500 μl of Accutase(Corning™ Accutase™ Cell Detachment Solution, #25058CI). The cells were then Pipetted gently with a 1000p tip to break up pellet, and then they were placed in a shaking water bath for 5-10 minutes, after which time they were swirled by hand frequently.
1 ml was taken off to count cells. The cells were spun again. Media was removed from the cell pellet. 1 mls of prepared media (no GF) was added. The cells were pipetted with a 1000 ul pipette. Cell dilutions (24,000
cells/well) in 250 μL of appropriate media were made. Cells were swirled daily and grown for 2 days.
1. The cells were fixed in the hood. For fixation and subsequent immunohistochemical analysis 100 ul of medium was removed and 100 ul 4% PFA in 1×PBS was added to fix the cells whilst counting the neurospheres by hand, then the cells were washed twice with 1×PBS for 5 min, and left in 1×PBS, wrapped in foil and left overnight at 4° C., or Dapi staining was carried out. 100 uL of PBS was removed and 100 uL
in AB staining solution for five min. Imaging was carried out using a GE Cytell imager or LSM 710, Zeiss confocal microscope and the diameters of neurospheres with ImageJ software (National Institutes of Health) was analysed.

The mark [3] stands for this setting: high dose sphingomyelin (Dose 3: 1 μm).
Setting [4] is: low dose sphingomyelin (Dose 1: 10 nM).
Where [5] appears, read: med dose sphingomyelin (Dose 2: 100 nM).

Take phosphatidylinositol: the “association with myelination (myelin water fraction) over time in the brain” value in the assay on brain myelination was “an association with myelination (myelin water fraction) was observed over time in the brain”.

As for `[Mg+2]` [magnesium], the “association with myelination (myelin water fraction) over time in the brain” value in the assay with brain myelination is listed as “an association with myelination (myelin water fraction) was observed over time in the brain”. On the same count and under the same terms, then vitamin B12, with “an association with myelination (myelin water fraction) was observed over time in the brain”. sphingomyelin: the “neuronal proliferation, DAPI” value was found to be 305 in assay [1] (setting [3]), 280 in assay [1] (setting [4]) and 314 in assay [1] (setting [5]). For the same molecule, the “association with myelination (myelin water fraction) over time in the brain” value in the assay with brain myelination is “an association with myelination (myelin water fraction) was observed over time in the brain”. The entries for the “number of neurospheres, Average (Mean)” value in assay [2] (setting [3]), in assay [2] (setting [4]) and in assay [2] (setting [5]) were 219, 94 and 121, respectively. On to iron, for which, in the assay on brain myelination, the “association with myelination (myelin water fraction) over time in the brain” value was “an association with myelination (myelin water fraction) was observed over time in the brain”. On to `[P]` [phosphorus], for which the “association with myelination (myelin water fraction) over time in the brain” value in the assay on brain myelination is given as “an association with myelination (myelin water fraction) was observed over time in the brain”. Turning to `[Ca+2]` [calcium], in the assay with brain myelination, the “association with myelination (myelin water fraction) over time in the brain” value is reported as “an association with myelination (myelin water fraction) was observed over time in the brain”. In the case of `CCCCC/C=C\C/C=C\C/C=C\C/C=C\CCCC(=O)O` [AA, arachidonic acid], the “association with myelination (myelin water fraction) over time in the brain” value in the assay with brain myelination was “an association with myelination (myelin water fraction) was observed over time in the brain”. On the same count and under the same terms, next, phosphatidylcholine: “an association with myelination (myelin water fraction) was observed over time in the brain”; `[Zn]` [zinc]: “an association with myelination (myelin water fraction) was observed over time in the brain”.

The record behind these values is patent publication US12484608B2, “Nutritional composition and infant formula for promoting de novo myelination” (SOCIETE DES PRODUITS NESTLE S.A., priority 2015, dated 2025).
